Measurements taken from ChEMBL document CHEMBL5357051, “Quinoline, Indole, and Isogranatanine Alkaloids from Malayan Leuconotis eugeniifolia” (J Nat Prod, 2024).

Assays:
HT-29 = assay: Cytotoxicity against human HT-29 cells assessed as inhibition of cell growth incubated for 72 hrs by MTT assay; type: functional, cell-based; settings: HT-29, 72 h
HCT-116 = assay: Cytotoxicity against human HCT-116 cells assessed as inhibition of cell growth incubated for 72 hrs by MTT assay; type: functional, cell-based; settings: HCT-116, 72 h

| SMILES | IC50 (HT-29) [µM] | IC50 (HCT-116) [µM] |
| --- | --- | --- |
| CC[C@@]12CCC[N@@+]3([O-])C[C@@H]4[C@@](O)(c5ccccc5N[C@]4(O)CC1)[C@@H]23 | 7.1 | > 10 |
| CC[C@@]12CCC[N+]3([O-])CC[C@@]4(C(=Nc5ccccc54)[C@@H](O)C1)[C@@H]23 (stereo partly specified) | > 10 | > 10 |
| CC[C@]12CCCN[C@]13/C(=C\C(=O)O)c1ccccc1N3C(=O)CC2 | > 10 | > 10 |
| CC[C@]12CCCN(C1)C(=O)CC2 | 7.2 | > 10 |
| COC(=O)[C@H]1CO[C@H](C)[C@]2(O)C[N@+]3([O-])CCc4c([nH]c5ccccc45)[C@@H]3C[C@H]12 | > 10 | > 10 |
| CC[C@@]12CCO[C@@H]1N(CC[C@]1(O)C(=O)Nc3ccccc31)CC[C@H]2O | > 10 | > 10 |
| CC[C@]1(CCC(=O)OC)CCCNC1 | > 10 | > 10 |
| COc1cccc2c1C(=O)c1c(O)c3c(c(O)c1C2=O)C[C@@](O)(C(=O)CO)C[C@@H]3O[C@H]1C[C@H](N)[C@H](O)[C@H](C)O1 [DOXORUBICIN] | 0.06 | 0.04 |
